Laboratory results taken from US20250154170A1, “FUSED PYRIMIDINES AS KRAS INHIBITORS” (priority 2022, published 2025).

Assays:
K-Ras G12D = K-Ras G12D (Homo sapiens, UniProt P01116, G12D); test: K-Ras G12D activation by SOS1 (KRAS G12D activation by SOS1cat assay, HTRF); type: biochemical; details: mean, SOS1cat mediated loading of GST-KRAS G12D-GDP with fluorescent GTP analogue, read-out: K-Ras G12D activation by SOS1 IC50 - [mol/l] (mean)
Method: (§1) Preparation of test compound dilutions. A 100-fold concentrated solution of the test compound (50 nL) in DMSO was transferred to microtiter test plates (384 or 1,536 wells, Greiner Bio-One, Germany) using either a Hummingbird liquid handler (Digilab, MA, USA) or an Echo acoustic system (Labcyte, CA, USA). Plates were sealed with adhesive foil or heat-sealed and stored at −20 C until use. Serial dilutions of test compounds were prepared in 100% DMSO using a Precision Pipetting System (BioTek, USA).
(§2) Measurement and evaluation of inhibition data, calculation of IC50 values. Homogeneous time-resolved fluorescence (HTRF) was measured with a PHERAstar reader (BMG, Germany) using the HTRF module (excitation: 337 nm; emission 1: 620 nm, emission 2: 665 nm). The ratio of the emissions at 665 and 620 nm was used as the specific signal for further evaluation. The data were normalized using the controls: DMSO=0% inhibition, inhibition control wells with inhibitor control solution=100% inhibition. Compounds were tested in duplicates at up to 11 concentrations (e.g. 20 μM, 5.7 μM, 1.6 μM, 0.47 μM, 0.13 μM, 38 nM, 11 nM, 3.1 nM, 0.89 nM, 0.25 nM and 0.073 nM). IC50 values were calculated using a four-parameter fit, with a commercial software package (Genedata Screener, Switzerland).
(§3) KRAS^G12C activation by SOS1^cat assay (“On-assay”). This assay quantifies SOS1^cat mediated loading of KRAS^G12C-GDP with a fluorescent GTP analogue. Detection of successful loading was achieved by measuring resonance energy transfer from anti-GST-terbium (FRET donor) bound to GST-KRAS^G12C to the loaded fluorescent GTP analogue (FRET acceptor). The fluorescent GTP analogue EDA-GTP-DY-647P1 [2′/3′-O-(2-aminoethyl-carbamoyl)guanosine-5′-triphosphate labelled with DY-647P1 (Dyomics GmbH, Germany)] was synthesized by Jena Bioscience (Germany) and supplied as a 1 mM aqueous solution. A KRAS^G12C working solution was prepared in assay buffer [10 mM HEPES pH 7.4 (AppliChem), 150 mM NaCl (Sigma), 5 mM MgCl2 (Sigma), 1 mM DTT (Thermo Fisher), 0.05% BSA Fraction V pH 7.0 (ICN Biomedicals), 0.0025% (v/v) Igepal (Sigma)] containing GST-KRAS^G12C (final concentration in assay 50 nM) and anti-GST-terbium (Cisbio, France) (final concentration in assay 1 nM). A SOS1^cat working solution was prepared in assay buffer containing SOS1^cat (final concentration 10 nM) and EDA-GTP-DY-647P1 (final concentration 100 nM). An inhibitor control solution was prepared in assay buffer containing EDA-GTP-DY-647P1 (final concentration 100 nM) without SOS1^cat. All steps of the assay were performed at 20° C. A volume of 3 μL of the KRAS^G12C working solution was added to all wells of the test plate using a Multidrop dispenser (Thermo LabSystems). After 15 min, 2 μL of the SOS1^ct working solution was added to all wells, except for the inhibitor control solution wells. After 30 min incubation, HTRF was measured.
(§4) G12D and Wild-type KRAS activation by SOS1cat assays. These assays quantify human SOS1^cat mediated loading of wild-type GST-KRAS^WT-GDP or GST-KRAS^G12D-GDP with a fluorescent GTP analogue. The assay was performed similarly to the KRAS^G12C activation by SOS1^cat assay with the following differences: final concentration of SOS1^cat of 60 nM and final incubation time before measurement of 10 min for KRAS^G12D assay, final concentration of SOS1^cat of 20 nM and final incubation time before measurement of 15 min for wild-type KRAS assay, respectively. GST-KRAS^G12C was replaced by GST-KRAS^WT or GST-KRAS^G12D, respectively, also at 50 nM final concentration.
KRAS^G12D activation by SOS1^cat assay (“On-assay”). This assay quantifies SOS1^cat mediated loading of KRAS^G12D-GDP with a fluorescent GTP analogue. Detection of successful loading was achieved by measuring resonance energy transfer from anti-GST-terbium (FRET donor) bound to GST-KRAS^G12D to the loaded fluorescent GTP analogue (FRET acceptor).

K-Ras-wildtype = K-Ras-wildtype (Homo sapiens, UniProt P01116); test: K-Ras-wildtype activation by SOS1 (wild-type KRAS activation by SOS1cat assay, HTRF); type: biochemical; details: mean, SOS1cat mediated loading of wild-type GST-KRAS-GDP with fluorescent GTP analogue, read-out: K-Ras-wildtype activation by SOS1 IC50 - [mol/l] (mean)
Sequence of K-Ras-wildtype (P01116 1-188 isoform P01116-2): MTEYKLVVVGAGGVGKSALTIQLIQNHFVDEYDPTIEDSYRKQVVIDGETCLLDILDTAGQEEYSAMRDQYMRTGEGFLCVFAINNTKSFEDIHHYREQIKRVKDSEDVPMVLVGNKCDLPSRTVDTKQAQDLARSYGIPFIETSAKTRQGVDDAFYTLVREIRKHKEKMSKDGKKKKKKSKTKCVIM
Method: as §1, §2, §3, §4
Wild-type KRAS activation by SOS1^cat assay. This assay quantifies human SOS1^cat mediated loading of wild-type GST-KRAS-GDP with a fluorescent GTP analogue. The assay was performed similarly to the KRAS^G12D activation by SOS1^cat assay just by replacement of GST-KRAS^G12D by wild-type GST-KRAS while concentrations of all components and incubation times were the same.

Sequence of K-Ras G12D (P01116 1-188 isoform P01116-2 G12D): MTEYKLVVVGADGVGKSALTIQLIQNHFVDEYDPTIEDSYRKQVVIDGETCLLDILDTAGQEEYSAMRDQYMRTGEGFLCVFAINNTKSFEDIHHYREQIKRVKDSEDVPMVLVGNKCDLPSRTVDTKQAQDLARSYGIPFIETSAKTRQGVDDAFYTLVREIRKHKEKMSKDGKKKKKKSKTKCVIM

SMILES | IC50 (K-Ras G12D) [µM] | IC50 (K-Ras-wildtype) [µM]
Cn1c(Oc2cc(O)cc3cccc(F)c23)nc2c(N3CC4CCC(C3)N4)nc(OCC34CCCN3CCC4)nc21 [Example 8, 4-({6-(3,8-diazabicyclo[3.2.1]octan-3-yl)-9-methyl-2-[(tetrahydro-1H-pyrrolizin-7a(5H)-yl)methoxy]-9H-purin-8-yl}oxy)-5-fluoronaphthalen-2-ol] | > 20 | > 20
Cn1c(Oc2cc(O)cc3ccccc23)nc2c(N3CC4CCC(C3)N4)nc(OCC34CCCN3CCC4)nc21 [Example 9, 4-({6-(3,8-diazabicyclo[3.2.1]octan-3-yl)-9-methyl-2-[(tetrahydro-1H-pyrrolizin-7a(5H)-yl)methoxy]-9H-purin-8-yl}oxy)naphthalen-2-ol] | > 20 | > 20
Oc1cc(Oc2nc3c(N4CC5CCC(C4)N5)nc(OCC45CCCN4CCC5)nc3[nH]2)c2ccccc2c1 [Example 10, 4-({6-(3,8-diazabicyclo[3.2.1]octan-3-yl)-2-[(tetrahydro-1H-pyrrolizin-7a(5H)-yl)methoxy]-9H-purin-8-yl}oxy)naphthalen-2-ol] | > 20 | > 20
Oc1cc(Oc2nc3c(N4CC5CCC(C4)N5)nc(OCC45CCCN4CCC5)nc3[nH]2)c2c(F)cccc2c1 [Example 11, 4-({6-(3,8-diazabicyclo[3.2.1]octan-3-yl)-2-[(tetrahydro-1H-pyrrolizin-7a(5H)-yl)methoxy]-9H-purin-8-yl}oxy)-5-fluoronaphthalen-2-ol] | > 20 | > 20
C#Cc1c(F)ccc2cc(O)cc(Oc3nc4c(N5CC6COCC(C5)N6)nc(OC[C@@]56CCCN5C[C@H](F)C6)nc4s3)c12 [Example 12, 5-ethynyl-6-fluoro-4-{[5-{[(2R,7aS)-2-fluorotetrahydro-1H-pyrrolizin-7a(5H)-yl]methoxy}-7-(3-oxa-7,9-diazabicyclo[3.3.1]nonan-7-yl)[1,3]thiazolo[5,4-d]pyrimidin-2-yl]oxy}naphthalen-2-ol] | 0.0237 | 0.0158
C#Cc1c(F)ccc2cc(O)cc(Oc3nc4c(N5CC6COCC(C5)N6)nc(OCC56CCCN5CCC6)nc4s3)c12 [Example 13, 5-ethynyl-6-fluoro-4-({7-(3-oxa-7,9-diazabicyclo[3.3.1]nonan-7-yl)-5-[(tetrahydro-1H-pyrrolizin-7a(5H)-yl)methoxy][1,3]thiazolo[5,4-d]pyrimidin-2-yl}oxy)naphthalen-2-ol] | 0.0256 | 0.0153
Oc1cc(Cc2nc3c(N4CC5CCC(C4)N5)nc(OCC45CCCN4CCC5)nc3s2)c2c(F)cccc2c1 [Example 14, 4-({7-(3,8-diazabicyclo[3.2.1]octan-3-yl)-5-[(tetrahydro-1H-pyrrolizin-7a(5H)-yl)methoxy][1,3]thiazolo[5,4-d]pyrimidin-2-yl}methyl)-5-fluoronaphthalen-2-ol] | 0.635 | > 20
Oc1cc(Oc2nc3c(N4CC5CCC(C4)N5)nc(OCC45CCCN4CCC5)nc3s2)c2c(Cl)cccc2c1 [Example 15, Formic acid-5-Chlor-4-{[7-(3,8-diazabicyclo[3.2.1]octan-3-yl)-5-(tetrahydro-1H-pyrrolizin-7a(5H)-ylmethoxy)[1,3]thiazolo[5,4-d]pyrimidin-2-yl]oxy}-2-naphthol (2:1)] | 0.0353 | 1.07
C=Cc1c(F)ccc2cc(O)cc(Oc3nc4c(N5CC6CCC(C5)N6)nc(OC[C@@]56CCCN5C[C@H](F)C6)nc4s3)c12 [Example 17, 4-{[7-(3,8-diazabicyclo[3.2.1]octan-3-yl)-5-{[(2R,7aS)-2-fluorotetrahydro-1H-pyrrolizin-7a(5H)-yl]methoxy}[1,3]thiazolo[5,4-d]pyrimidin-2-yl]oxy}-5-ethenyl-6-fluoronaphthalen-2-ol] | 0.0134 | 0.425
Cn1c(Oc2cc(O)cc3ccccc23)nc2nc(OCC34CCCN3CCC4)nc(N3CC4CCC(C3)N4)c21 [Example 18, 4-({6-(3,8-diazabicyclo[3.2.1]octan-3-yl)-7-methyl-2-[(tetrahydro-1H-pyrrolizin-7a(5H)-yl)methoxy]-7H-purin-8-yl}oxy)naphthalen-2-ol] | 15.3 | > 20
C#Cc1c(F)ccc2cc(O)cc(Oc3nc4c(N5CC6COCC(C5)N6)nc(OC[C@@]56CCCN5C[C@H](F)C6)nc4s3)c12 [Example 19, 5-ethynyl-6-fluoro-4-{[5-{[(2R,7aS)-2-fluorotetrahydro-1H-pyrrolizin-7a(5H)-yl]methoxy}-7-(3-oxa-7,9-diazabicyclo[3.3.1]nonan-7-yl)[1,3]thiazolo[5,4-d]pyrimidin-2-yl]oxy}naphthalen-2-ol] | 0.0143 | 0.0107
C#Cc1c(F)ccc2cc(O)cc(Oc3nc4nc(OCC56CCCN5CCC6)nc(N5CC6CCC(C5)N6)c4n3C)c12 [Example 22, 4-({6-(3,8-diazabicyclo[3.2.1]octan-3-yl)-7-methyl-2-[(tetrahydro-1H-pyrrolizin-7a(5H)-yl)methoxy]-7H-purin-8-yl}oxy)-5-ethynyl-6-fluoronaphthalen-2-ol] | 0.0895 | > 20
C#Cc1c(Cl)ccc2cc(O)cc(Oc3nc4c(N5CC6CCC(C5)N6)nc(OC[C@@]56CCCN5C[C@H](F)C6)nc4s3)c12 [Example 23, 6-chloro-4-{[7-(3,8-diazabicyclo[3.2.1]octan-3-yl)-5-{[(2R,7aS)-2-fluorotetrahydro-1H-pyrrolizin-7a(5H)-yl]methoxy}[1,3]thiazolo[5,4-d]pyrimidin-2-yl]oxy}-5-ethynylnaphthalen-2-ol] | 0.0049 | 0.095
Oc1cc(Nc2nc3c(N4CC5CCC(C4)N5)nc(OC[C@@]45CCCN4C[C@H](F)C5)nc3s2)c2ccccc2c1 [Example 28, 4-{[7-(3,8-diazabicyclo[3.2.1]octan-3-yl)-5-{[(2R,7aS)-2-fluorotetrahydro-1H-pyrrolizin-7a(5H)-yl]methoxy}[1,3]thiazolo[5,4-d]pyrimidin-2-yl]amino}naphthalen-2-ol] | 1.41 | > 20
CN(c1nc2c(N3CC4CCC(C3)N4)nc(OC[C@@]34CCCN3C[C@H](F)C4)nc2s1)c1cc(O)cc2ccccc12 [Example 29, 4-{[7-(3,8-diazabicyclo[3.2.1]octan-3-yl)-5-{[(2R,7aS)-2-fluorotetrahydro-1H-pyrrolizin-7a(5H)-yl]methoxy}[1,3]thiazolo[5,4-d]pyrimidin-2-yl](methyl)amino}naphthalen-2-ol] | 0.284 | 11.9
Oc1cc(Nc2nc3c(N4CC5COCC(C4)N5)nc(OC[C@@]45CCCN4C[C@H](F)C5)nc3s2)c2ccccc2c1 [Example 30, 4-{[5-{[(2R,7aS)-2-fluorotetrahydro-1H-pyrrolizin-7a(5H)-yl]methoxy}-7-(3-oxa-7,9-diazabicyclo[3.3.1]nonan-7-yl) [1,3]thiazolo[5,4-d]pyrimidin-2-yl]amino}-2-naphthol] | 10.6 | 7.61
